Measured values: patent publication US20080045559A1, “TOCOPHEROL-MODIFIED THERAPEUTIC DRUG COMPOUNDS” (SONUS PHARMACEUTICALS, INC., priority 2003, published 2008)
Where a name gives a salt, the structure may show the parent alone. Read-outs that look alike come from different tables or passages of the source. Marks after values point to notes of the source that are not given here.

Key:
SKOV-3 (OVARIAN) = assay: In vitro cytotoxicity GI50, Example 48; assay type: cell-based; details: Homo sapiens, SK-OV-3, Alamar Blue or Sulfarhodamine B
HCT-116 (COLON) [1] = assay: In vitro cytotoxicity GI50, Example 48; assay type: cell-based; details: Alamar Blue or Sulfarhodamine B
Procedure: The study was performed using either Alamar Blue or Sulfarhodamine B assays.

OVCAR-3 (OVARIAN) = assay: In vitro cytotoxicity GI50, Example 17; assay type: cell-based; details: emulsion formulations, 48 hours, ALAMAR BLUE
Procedure: (§1) The cells were in contact with varying concentrations of the test article for a period of 48 hours. At the end of 48 hours, staining with ALAMAR BLUE was performed to determine the number of viable cells and calculate the degree of cellular growth inhibition as compared to a control group.

HT29 (COLON) = assay: In vitro cytotoxicity GI50, Example 17; assay type: cell-based; details: Homo sapiens
Procedure: as §1

MCF-7 (BREAST) = assay: In vitro cytotoxicity GI50, Example 17; assay type: cell-based; details: Homo sapiens, MCF7, emulsion formulations, 48 hours, ALAMAR BLUE
Procedure: as §1

NCI-H460 (NSCLC) = assay: In vitro cytotoxicity GI50, Example 17; assay type: cell-based; details: Homo sapiens
Procedure: as §1

HCT-15 (COLON) = assay: In vitro cytotoxicity GI50, Example 17; assay type: cell-based; details: Homo sapiens
Procedure: as §1

HCT-116 (COLON) [2] = assay: In vitro cytotoxicity GI50, Example 17; assay type: cell-based; details: Homo sapiens
Procedure: as §1

[3] = Solubility to saturation in various solvents, supernatant analysed by HPLC; assay type: physicochemical
Procedure: Compounds were dissolved in each solvent under constant stirring and temperature to saturation. The resulting solutions were centrifuged and the supernatant was analyzed by high performance liquid chromatography (HPLC).

[4] = In vitro stability of the lactone form in the presence of human serum albumin; assay type: in vitro ADME; details: saline buffered solution 10 mM pH 7.4, 4% human serum albumin, 37° C.; emulsions vs camptothecin in DMSO; FIG. 12
Source text: High performance liquid chromatography with fluorescence detection was used to analyze the decrease in the concentration of the lactone form over time.

[5] = Pharmacokinetics after intravenous bolus in rats; assay type: in vivo; details: Sprague-Dawley, rat, intravenous bolus of emulsion, approximately 14 mg/kg, plasma; for half-life: read-out: t1/2 (elimination) (converted)
Procedure: Blood samples were collected for up to 120 hours post dose via the jugular vein. […] A noncompartmental analysis was carried out using WinNonlin (v 4.1).

HT-29 human tumor cells = assay: HT-29 human tumor xenograft; assay type: in vivo, Athymic mice; details: for Number of animals with no measurable tumor on Day 55 / Tumor Growth Delay (T-C) / Tumor Growth Inhibition (% T/C): 15 mg/kg i.v.; for Mice with no measurable tumor: fifty-five days after dose initiation
Procedure: HT-29 Human Tumor Xenograft. Athymic mice were subcutaneously implanted with 30-40 mg tumor fragments using 12-gauge trocar needles. A sufficient number of mice were implanted with fragments so tumors in narrow weight range (100-200 mg) were selected for the trial on staging day (SD). The animals selected with tumors in the proper size range were randomized into six groups of 10 animals and intravenously administered the following test compounds:
In both xenograph studies, animal body weights and tumors were measured twice weekly following the initiation of dosing. The tumor measurements were performed using a caliper (millimeters); the tumor volume was calculated based on the formula: (Length×width^2)/2=Volume(mm^3).

H460 (NSCLC) = assay: In vitro cytotoxicity GI50, Example 48; assay type: cell-based
HT-29 (COLON) = assay: In vitro cytotoxicity GI50, Example 48; assay type: cell-based; details: Homo sapiens, Alamar Blue or Sulfarhodamine B
[6] = rat, in vivo, iv; cited from earlier work

CCc1c2c(nc3ccc(OC(=O)CC(C)CC(=O)Oc4cc(C)c5c(c4)CC[C@@](C)(CCC[C@H](C)CCC[C@H](C)CCCC(C)C)O5)cc13)-c1cc3c(c(=O)n1C2)COC(=O)[C@]3(O)CC (stereo partly drawn) [δ-tocopherol-3-methylglutarate-SN38, δ-Tocopherol-3-methylglutarate-7-ethyl-10-hydroxycamptothecin]
GI50 (SKOV-3 (OVARIAN)): 1.48 nM

CCc1c2c(nc3ccc(OC(=O)CC(C)CC(=O)Oc4c(C)c(C)c5c(c4C)CC[C@@](C)(CCC[C@H](C)CCC[C@H](C)CCCC(C)C)O5)cc13)-c1cc3c(c(=O)n1C2)COC(=O)[C@]3(O)CC (stereo partly drawn) [d-α-tocopherol-3-methylglutarate-SN38, d-α-Tocopherol-3-methylglutarate-7-ethyl-10-hydroxycamptothecin]
GI50 (HCT-116 (COLON) [1]; HCT-116): 187 nM | GI50 (HCT-116 (COLON) [1]; Homo sapiens, HCT-116, HCT-116): 116 nM

CC[C@@]1(OC(=O)CCC(=O)Oc2c(C)c(C)c3c(c2C)CC[C@@](C)(CCC[C@H](C)CCC[C@H](C)CCCC(C)C)O3)C(=O)OCc2c1cc1n(c2=O)Cc2cc3ccccc3nc2-1 [VESA-CPT, Butanedioic acid, (2R)-3,4-dihydro-2,5,7,8-tetramethyl-2-[(4R,8R)-4,8,12-trimethyltridecyl]-2H-1-benzopyran-6-yl (4S)-4-ethyl-3,4,12,14-tetrahydro-3,14-dioxo-1H-pyrano[3′,4′:6,7]indolizino[1,2-b]quinolin-4-yl ester]
GI50 (result in words) (OVCAR-3 (OVARIAN)): Poor | GI50 (HT29 (COLON); HT-29, 48 h): 434 nM | GI50 (MCF-7 (BREAST)): 325 nM | GI50 (NCI-H460 (NSCLC); NCI-H460, 48 h): 43 nM | GI50 (HCT-15 (COLON); HCT-15, 48 h): 20 µM | GI50 (HCT-116 (COLON) [2]; HCT-116, 48 h): 449 nM | Solubility ([3]; Acetonitrile, Room Temp.): 49.6 mg/g | Solubility ([3]; Captex 300 EP, Room Temp.): 96.7 mg/g | Solubility ([3]; Chloroform, Room Temp.): >372.5 mg/g | Solubility ([3]; DMSO, Room Temp.): >255.5 mg/g | Solubility ([3]; Ethanol Denatured, Room Temp.): 57.1 mg/g | Solubility ([3]; Glycerin USP/EP/BP/JP, Room Temp.): 2.541 mg/g | Solubility ([3]; Methanol, Room Temp.): 14.4 mg/g | Solubility ([3]; Methylene dichloride, Room Temp.): >336.5 mg/g | Solubility ([3]; PEG-400 NF, Room Temp.): 17.5 mg/g | Solubility ([3]; Propylene Glycol, USP, Room Temp.): 0.4633 mg/g | Solubility ([3]; Soybean Oil USP, Room Temp.): 45.2 mg/g | Solubility ([3]; TPGS, 65 °C): >133.3 mg/g | Solubility ([3]; Tween 80 NF, 65 → Room Temp.): 48.3 mg/g | Solubility ([3]; Vitamin E USP/NF, 65 °C): >288.3 mg/g | Stability of the lactone form [4]: greater than that of camptothecin | MRT ([5]; in vivo): 9.4 h | clearance ([5]; in vivo): 0.135 mL/min/kg | half-life ([5]; in vivo): 1740 min | Number of animals with no measurable tumor on Day 55 (HT-29 human tumor cells; q1dx5 (2 weeks)): 0/10 | Tumor Growth Delay (T-C) (HT-29 human tumor cells; q1dx5 (2 weeks)): 8.5 days | Tumor Growth Inhibition (% T/C) (HT-29 human tumor cells; q1dx5 (2 weeks), Day 55): 79 % T/C | Number of animals with no measurable tumor on Day 55 (HT-29 human tumor cells; q3dx10): 0/10 | Tumor Growth Delay (T-C) (HT-29 human tumor cells; q3dx10): 0 days

CCc1c2c(nc3ccc(OC(=O)CCC(=O)Oc4cc(C)c5c(c4)CC[C@@](C)(CCC[C@H](C)CCC[C@H](C)CCCC(C)C)O5)cc13)-c1cc3c(c(=O)n1C2)COC(=O)[C@]3(O)CC [δ-tocopherol succinate-SN38, δ-Tocopherolsuccinate-7-ethyl-10-hydroxycamptothecin]
GI50 (SKOV-3 (OVARIAN)): 2.95 nM

CCc1c2c(nc3ccc(OC(=O)CCC(=O)Oc4c(C)c(C)c5c(c4C)CC[C@@](C)(CCC[C@H](C)CCC[C@H](C)CCCC(C)C)O5)cc13)-c1cc3c(c(=O)n1C2)COC(=O)[C@]3(O)CC [VESA-SN38, Butanedioic acid, (4S)-4,11-diethyl-3,4,12,14-tetrahydro-4-hydroxy-3,14-dioxo-1H-pyrano[3′,4′:6,7]indolizino[1,2-b]quinolin-9-yl (2R)-3,4-dihydro-2,5,7,8-tetramethyl-2-[(4R,8R)-4,8,12-trimethyltridecyl]-2H-1-benzopyran-6-yl ester]
GI50 (OVCAR-3 (OVARIAN); Homo sapiens): 83 nM | GI50 (HT29 (COLON); HT-29, HT29, emulsion formulations, 48 hours, ALAMAR BLUE, read-out: GI50): 91 nM | GI50 (NCI-H460 (NSCLC); NCI-H460, emulsion formulations, 48 hours, ALAMAR BLUE, read-out: GI50): 4 nM | GI50 (HCT-15 (COLON); HCT-15, emulsion formulations, 48 hours, ALAMAR BLUE, read-out: GI50): 0.099 µM | GI50 (HCT-116 (COLON) [2]; HCT-116, emulsion formulations, 48 hours, ALAMAR BLUE, read-out: GI50): 119 nM | Stability of the lactone form [4]: greater than that of camptothecin | MRT [5]: 5.15 h | clearance [5]: 0.112 mL/min/kg | half-life [5]: 209 min | Number of animals with no measurable tumor on Day 55 (HT-29 human tumor cells; q1dx5 (2 weeks)): 4/10 | Tumor Growth Delay (T-C) (HT-29 human tumor cells; q1dx5 (2 weeks)): >28* days | Tumor Growth Inhibition (% T/C) (HT-29 human tumor cells; q1dx5 (2 weeks), Day 55): 4 % T/C | Number of animals with no measurable tumor on Day 55 (HT-29 human tumor cells; q3dx10): 8/10 | Tumor Growth Delay (T-C) (HT-29 human tumor cells; q3dx10): >28* days | Tumor Growth Inhibition (% T/C) (HT-29 human tumor cells; q3dx10, Day 55): 2 % T/C | Mice with no measurable tumor (HT-29 human tumor cells; q1dx5): 40% | Mice with no measurable tumor (HT-29 human tumor cells; q3dx10): 80%

CCc1c2c(nc3ccc(OC(=O)CCCC(=O)Oc4c(C)c(C)c5c(c4C)CC[C@@](C)(CCC[C@H](C)CCC[C@H](C)CCCC(C)C)O5)cc13)C1CC3C(COC(=O)[C@]3(O)CC)C(=O)N1C2 (stereo partly drawn) [d-α-Tocopherolglutarate-SN38, d-α-Tocopherolglutarate-7-ethyl-10-hydroxycamptothecin]
GI50 (HCT-116 (COLON) [1]; Homo sapiens, HCT-116, HCT-116): 190 nM

CCc1c2c(nc3ccc(OC(=O)CC4(CC(=O)Oc5c(C)c(C)c6c(c5C)CC[C@@](C)(CCC[C@H](C)CCC[C@H](C)CCCC(C)C)O6)CCCC4)cc13)-c1cc3c(c(=O)n1C2)COC(=O)[C@]3(O)CC [d-α-Tocopherol-3,3-tetramethyleneglutarate-7-ethyl-10-hydroxycamptothecin]
GI50 (HCT-116 (COLON) [1]; Homo sapiens, HCT-116, HCT-116): 214 nM | GI50 (H460 (NSCLC); Homo sapiens, NCI-H460, H460, Alamar Blue or Sulfarhodamine B, read-out: GI50): 560 nM | GI50 (HT-29 (COLON)): 48 nM

CCc1c2c(nc3ccc(OC(=O)CCC(=O)Oc4c(C)c(C)c5c(c4C)CCC(C)(CCCC(C)CCCC(C)CCCC(C)C)O5)cc13)-c1cc3c(c(=O)n1C2)COC(=O)C3(CC)OC(=O)CCC(=O)Oc1c(C)c(C)c2c(c1C)CCC(C)(CCCC(C)CCCC(C)CCCC(C)C)O2 (stereo not drawn) [10,20-diVESA-SN38, 10,20-Di(tocopherol succinate) 7-Ethyl-10-hydroxycamptothecin]
GI50 (HCT-116 (COLON) [1]; HCT-116): 9330 nM | GI50 (H460 (NSCLC); H460, Alamar Blue or Sulfarhodamine B, read-out: GI50): 4060 nM

CCc1c2c(nc3ccc(OC(=O)N4CCC(N5CCCCC5)CC4)cc13)-c1cc3c(c(=O)n1C2)COC(=O)[C@]3(O)CC [Irinotecan, irinotecan hydrochloride]
MRT [6]: 1.43 h

CCc1c2c(nc3ccc(OC(=O)CCC(=O)Oc4c(C)c(C)c5c(c4C)CC[C@@](C)(CCC[C@H](C)CCC[C@H](C)CCCC(C)C)O5)cc13)-c1cc3c(c(=O)n1C2)COC(=O)[C@@]3(CC)OC(C)=O [20-acetyl-10-VESA-SN38, 20-Acetyl-10-(d-α-tocopherolsuccinate)-7-ethyl-10-hydroxycamptothecin]
GI50 (HCT-116 (COLON) [1]; Homo sapiens, HCT-116): 144 nM | GI50 (H460 (NSCLC); Homo sapiens, NCI-H460): 1260 nM

CCc1c2c(nc3ccc(OC(C)=O)cc13)-c1cc3c(c(=O)n1C2)COC(=O)[C@@]3(CC)OC(=O)CCC(=O)Oc1c(C)c(C)c2c(c1C)CC[C@@](C)(CCC[C@H](C)CCC[C@H](C)CCCC(C)C)O2 [10-acetyl-20-VESA-SN38, 10-Acetyl-20-(d-α-tocopherolsuccinate)-7-ethyl-10-hydroxycamptothecin]
GI50 (H460 (NSCLC); Homo sapiens, NCI-H460): 3900 nM
